Reference: patent publication US9765052B2, “Anthranilamide compounds, their mixtures and the use thereof as pesticides” (BASF SE, priority 2013, dated 2017)

Legend:
[1] = tested on: green peach aphid (Myzus persicae); assay: Test 1: control of green peach aphid through systemic means (artificial diet, 96-well microtiter plates); assay type: in vivo; details: 3 days
From the text: If present, synergism can be described as an interaction where the combined effect of two or more compounds is greater than the sum of the individual effects of each of the compounds. The presence of a synergistic effect in terms of percent control, between two mixing partners (X and Y) can be calculated using the Colby equation (Colby, S. R., 1967, Calculating Synergistic and Antagonistic Responses in Herbicide Combinations, Weeds, 15, 20-22):
When the observed combined control effect is greater than the expected combined control effect (E), then the combined effect is synergistic.
For evaluating control of green peach aphid (Myzus persicae) through systemic means the test unit consisted of 96-well-microtiter plates containing liquid artificial diet under an artificial membrane.
The compounds or mixtures were formulated using a solution containing 75% water and 25% DMSO. Different concentrations of formulated compounds or mixtures were pipetted into the aphid diet, using a custom built pipetter, at two replications.
For experimental mixtures in these tests identical volumes of both mixing partners at the desired concentrations respectively, were mixed together.
After application, 5-8 adult aphids were placed on the artificial membrane inside the microtiter plate wells. The aphids were then allowed to suck on the treated aphid diet and incubated at […], 50±5% RH for 3 days. Aphid mortality and fecundity was then visually assessed. For the mixture tested the results are listed in the tables for Example E2-1 and E2-2.

Degradation in soil = assay type: physicochemical; details: neutral sandy loam soil LUFA 5M; incubated at 27° C. and 40% of max. water-holding capacity over 90 days; DT50 referring to 20° C.; SFO or DFOP kinetics
Procedure: Degradation of the compound (I-B-131) and compound (I-B-33) in soil was compared. The two compounds were incubated in neutral sandy loam soil (LUFA 5M) at 27° C. and 40% of the max. water-holding capacity over a period of 90 days. Soil extraction was carried out with acetonitrile followed by acetonitrile/water (1/1) and the extracted test compounds were quantified by HPLC-MS. The following DT50 values (referring to 20° C.) were obtained assuming single first order (SFO) or double first order in parallel (DFOP) kinetics: […]

[2] = tested on: Diamide-resistant diamond back moth (Plutella xylostella), Cebu strain; details: third instar larvae, mortality 3 days after inoculation; comparing LC50s and LC90s
[3] = tested on: Neonicotinoid and pyrethroid resistant strain of the green peach aphid (Myzus persicae); assay: B2 a) Myzus persicae mixed population, contact activity, curative on pea seedlings; Resistance Factor RF80; assay type: in vivo; details: FRC-P strain (neonicotinoid resistant) vs standard screening strain of Myzus persicae; lowest concentration giving greater than 80% mortality, 6 days after treatment
From the text: B2: Determination of the cross-resistance status of compounds I when applied against agronomically important pest species resistant to one or more commercially available class of insecticide.
(§1) The level of resistance and therefore the impact on the performance of the insecticide can be measured by the use of a ‘Resistance Factor’. The resistance factor can be calculated by dividing the concentration of an insecticide that provides a set level of mortality (i.e. 80 percent) for the ‘resistant’ strain with the concentration of the same insecticide that provides the same level of mortality for the ‘susceptible’ insect of the same species and life-stage. Although there are no set rules, a low value (1-10) indicates no cross-resistance and only natural levels of variation and a high value (50+) provides strong evidence of cross-resistance.
a) Neonicotinoid and Pyrethroid Resistant Strain of the Green Peach Aphid (Myzus persicae)
Myzus persicae strains utilised: • Standard screening strain of Myzus persicae (Neonicotinoid susceptible) • FRC-P strain of Myzus persicae (Neonicotinoid resistant) Bioassay Method
Myzus persicae: mixed population, contact activity, curative on pea seedlings
Pea seedlings, infested with an aphid population of mixed ages, are treated with the test solutions in a spray chamber. 6 days after treatment, samples are checked for mortality. […]

[4] = tested on: ALM07 strain (neonicotinoid and pyrethroid resistant), adult whitefly
From the text: Bioassay Method Bemisia tabaci Residual Activity, Preventive Egg Lay

[5] = tested on: Neonicotinoid resistant strain of the brown planthopper (Nilaparvata lugens); assay: B2 b) Nilaparvata lugens larvicide, feeding/contact activity, preventive on rice seedlings; Resistance Factor RF80; assay type: in vivo; details: IND3 strain (neonicotinoid resistant) vs standard screening strain of Nilaparvata lugens; lowest concentration giving greater than 80% mortality
From the text: as §1
b) Neonicotinoid Resistant Strain of the Brown Planthopper (Nilaparvata lugens)
Nilaparvata lugens strains utilised: • Standard screening strain of Nilaparvata lugens (Neonicotinoid susceptible) • IND3 strain of Nilaparvata lugens (Neonicotinoid resistant) Bioassay Method: Nilaparvata lugens: Larvicide, Feeding/Contact Activity, Preventive
Rice seedlings are treated with the diluted test solutions in a turn table spray chamber. After drying, they are infested with 20 N3 nymphs. 6 and 12 days after the treatment samples are checked for mortality, growth regulation, and effects on the Fi generation.
The Resistance Factor (RF80) of different compounds is tested. […]

CC(NC(=O)c1cc(Cl)cc(Br)c1NC(=O)c1cc(Br)nn1-c1ncccc1Cl)C1CC1 (stereo not shown) [I-A-1]
Average Control % ([1]; Example E2-1, 0.4 ppm): 0%
Average Control % ([1]; Example E2-2, 0.8 ppm): 0%

CNC(=O)c1cc(Cl)cc(C)c1NC(=O)c1cc(Br)nn1-c1ncccc1Cl [I-B-33, chlorantraniliprole]
Average Control % ([1]; Example E2-2, 0.4 ppm): 0%
DT50 (Degradation in soil): 89 days

Cc1cc(Cl)cc(C(N)=O)c1NC(=O)c1cc(C(F)(F)F)nn1-c1ncccc1Cl [I-B-131, N-(2-carbamoyl-4-chloro-6-methyl-phenyl)-2-(3-chloro-2-pyridyl)-5-(trifluoromethyl)pyrazole-3-carboxamide]
DT50 (Degradation in soil): 41 days

CC1=NNC(=O)N(/N=C/c2cccnc2)C1 [Pymetrozine, pymetrozine]
Average Control % ([1]; Example E2-1, 80 ppm): 0%

Cc1cc(C(F)(C(F)(F)F)C(F)(F)F)ccc1NC(=O)c1cccc(I)c1C(=O)NC(C)(C)CS(C)(=O)=O [flubendiamide]
Efficacy against field collected Cebu strain of Plutella xylostella [2]: only weak efficacies

CN1COCN(Cc2cnc(Cl)s2)/C1=N\[N+](=O)[O-] [thiamethoxam]
Resistance Factor (RF80) [3]: > 250
RF in residual mortality bioassay of adult whitefly [4]: > 250
Resistance Factor (RF80) [5]: > 64
